According to US20110105457A1, “HETEROCYCLIC COMPOUND HAVING INHIBITORY ACTIVITY ON PI3K” (SHIONOGI & CO., LTD., priority 2008, published 2011):

Target: PI-3 kinase γ (Homo sapiens, UniProt P48736)
Assay: PI3Kγ inhibitory activity, PI3-kinase HTRF assay (Millipore)
Type: biochemical
Conditions: 0.5 h; compound 50 μM; read-out: Inhibition ratio % (50 μM)
Description: (Method) The PI3Kγ inhibitory activity of a compound was evaluated using PI3-kinase HTRF™ assay (Millipore) according to the following procedure.
To each well of a testing plate was added 5 μL of a compound solution comprising 10% DMSO (200 μM as the concentration of the compound), 5 μL of 40 μM phosphatidylinositol (4,5)-bisphosphate/20 mM MgCl2/10 mM DTT, and 5 μL of 80 μg/mL PI-3 kinase γ/10 mM MgCl2/5 mM DTT, and then stood for 10 minutes.
Then, 5 μL of 40 μM ATP/10 mM MgCl2/5 mM DTT was added thereto. After reacting for 30 minutes at room temperature, 5 μL of a solution comprising EDTA and biotinylated phosphatidylinositol (3,4,5)-triphosphate was added to quench the reaction.
5 μL of a detection reagent comprising a europium-labeled anti-GST antibody, the GST-tagged PH domain, and allophycocyanin-labeled streptavidin was added thereto. After 18 hours, HTRF (excitation wavelength: 330 nm, measuring wavelengths: 620 nm and 665 nm) was measured.
A value of dividing an amount of fluorescence obtained at the measuring wavelength 665 nm by an amount of fluorescence obtained at 620 nm was defined as an HTRF ratio. The HTRF ratio in the absence of a compound was defined as 100% activity, and the HTRF ratio in the absence of PI-3 kinase γ was defined as 0% activity to calculate an inhibition ratio.

PI-3 kinase γ, sequence (P48736 whole entry): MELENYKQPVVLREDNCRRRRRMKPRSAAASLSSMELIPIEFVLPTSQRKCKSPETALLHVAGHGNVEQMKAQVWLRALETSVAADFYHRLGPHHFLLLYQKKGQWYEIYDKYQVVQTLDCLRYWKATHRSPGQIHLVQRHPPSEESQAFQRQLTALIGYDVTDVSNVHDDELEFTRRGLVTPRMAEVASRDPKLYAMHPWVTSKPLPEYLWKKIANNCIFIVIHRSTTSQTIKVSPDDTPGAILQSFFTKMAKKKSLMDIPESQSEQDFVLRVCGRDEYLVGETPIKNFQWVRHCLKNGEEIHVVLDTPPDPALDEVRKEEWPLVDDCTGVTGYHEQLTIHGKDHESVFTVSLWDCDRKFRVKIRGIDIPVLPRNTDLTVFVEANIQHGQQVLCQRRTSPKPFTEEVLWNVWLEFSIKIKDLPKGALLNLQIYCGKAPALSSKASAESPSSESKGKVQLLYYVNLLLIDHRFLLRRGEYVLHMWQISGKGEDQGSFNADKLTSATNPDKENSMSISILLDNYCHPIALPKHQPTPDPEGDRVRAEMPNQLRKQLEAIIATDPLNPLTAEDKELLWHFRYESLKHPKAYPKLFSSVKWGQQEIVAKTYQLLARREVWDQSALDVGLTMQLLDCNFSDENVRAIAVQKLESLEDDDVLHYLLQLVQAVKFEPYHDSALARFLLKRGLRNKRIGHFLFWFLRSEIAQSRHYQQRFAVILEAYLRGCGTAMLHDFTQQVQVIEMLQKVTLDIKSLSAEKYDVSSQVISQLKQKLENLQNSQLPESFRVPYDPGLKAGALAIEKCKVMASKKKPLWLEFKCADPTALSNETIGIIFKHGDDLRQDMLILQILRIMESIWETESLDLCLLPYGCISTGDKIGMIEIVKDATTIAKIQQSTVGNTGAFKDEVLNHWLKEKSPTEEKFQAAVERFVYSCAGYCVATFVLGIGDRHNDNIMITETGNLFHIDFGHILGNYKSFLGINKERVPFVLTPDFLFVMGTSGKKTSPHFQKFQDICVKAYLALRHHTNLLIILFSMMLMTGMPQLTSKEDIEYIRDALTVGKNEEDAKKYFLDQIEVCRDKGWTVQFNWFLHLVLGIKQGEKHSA

SMILES | inhibition at 50 µM [%]
CNC(=O)Nc1cn2nc(-c3cn[nH]c3)ccc2n1 [Compound I-141] | 87
CNC(=O)Nc1cn2nc(-c3cncnc3)ccc2n1 [Compound I-145] | 70
CNC(=O)Nc1cn2nc(-c3cccc(OC(C)=O)c3)ccc2n1 [Compound I-146] | 64
CNC(=O)Nc1cn2nc(-c3ccncc3)ccc2n1 [Compound I-147] | 77
CNC(=O)Nc1cn2nc(-c3ccc(OC)nc3)ccc2n1 [Compound I-148] | 83
CNC(=O)Nc1cn2nc(/C=C/c3ccc(OC)cc3)ccc2n1 [Compound I-149] | 53
CNC(=O)Nc1cn2nc(-c3cccc(OCc4ccccc4)c3)ccc2n1 [Compound I-150] | 71
CNC(=O)Nc1cn2nc(-c3cccc(OC)n3)ccc2n1 [Compound I-151] | 63
CNC(=O)Nc1cn2nc(-c3cccc(O)c3)ccc2n1 [Compound I-152] | 80
CNC(=O)Nc1cn2nc(-c3cccc(C(F)(F)F)c3)ccc2n1 [Compound I-154] | 54
CNC(=O)Nc1cn2nc(-c3cccc(-c4ccccc4)c3)ccc2n1 [Compound I-155] | 57
CNC(=O)Nc1cn2nc(COc3ccccc3)ccc2n1 [Compound I-157] | 58
CNC(=O)Nc1cn2nc(NC(=O)Nc3cccc(C(=O)O)c3)ccc2n1 [Compound I-159] | 86
CNC(=O)Nc1cn2nc(NC(=O)c3ccc(C(=O)O)cc3)ccc2n1 [Compound I-160] | 77
CNC(=O)Nc1cn2nc(Nc3cccc(N(C)C)c3)ccc2n1 [Compound I-161] | 102
CNC(=O)Nc1cn2nc(Nc3cccc(C(=O)O)c3)ccc2n1 [Compound I-162] | 89
COc1cccc(-c2ccc3nc(NC(=O)CC(C)CC(C)(C)C)cn3n2)c1 (stereo not drawn) [Compound I-164] | 89
COc1cccc(-c2ccc3nc(NC(=O)c4ccccn4)cn3n2)c1 [Compound I-168] | 64
COc1cccc(-c2ccc3nc(NC(=O)c4ccncc4)cn3n2)c1 [Compound I-170] | 60
COC(=O)C[C@H](C)CC(=O)Nc1cn2nc(-c3cccc(OC)c3)ccc2n1 [Compound I-171] | 71
COc1cccc(-c2ccc3nc(NC(=O)CCC(=O)N(C)C)cn3n2)c1 [Compound I-172] | 81
COc1cccc(-c2ccc3nc(NC(=O)Cc4ccccc4OC)cn3n2)c1 [Compound I-174] | 78
COc1cccc(-c2ccc3nc(NC(=O)CNC(C)=O)cn3n2)c1 [Compound I-175] | 66
COc1cccc(-c2ccc3nc(NC(=O)c4ccc5[nH]nnc5c4)cn3n2)c1 [Compound I-177] | 85
COc1cccc(-c2ccc3nc(NC(=O)c4ccc[nH]4)cn3n2)c1 [Compound I-180] | 96

SMILES | inhibition at 50 µM [%]
COc1cccc(-c2ccc3nc(NC(=O)CC(C)(C)C)cn3n2)c1 [Compound I-186] | 78
COc1cccc(-c2ccc3nc(NC(=O)CC4CC4)cn3n2)c1 [Compound I-188] | 65
COC(=O)c1cccc(C(=O)Nc2cn3nc(-c4cccc(OC)c4)ccc3n2)c1 [Compound I-192] | 52
COc1cccc(-c2ccc3nc(NC(=O)C4CCOCC4)cn3n2)c1 [Compound I-194] | 84
COC(=O)[C@H]1CC[C@@H](C(=O)Nc2cn3nc(-c4cccc(OC)c4)ccc3n2)C1 [Compound I-195] | 82
COc1cccc(-c2ccc3nc(NC(=O)c4ccc(OC)c(OC)c4)cn3n2)c1 [Compound I-198] | 57
COc1cccc(-c2ccc3nc(NC(=O)c4cccc(N5CCOCC5)c4)cn3n2)c1 [Compound I-202] | 83
COc1cccc(-c2ccc3nc(NC(=O)c4cccc(N5CCN(C)CC5)c4)cn3n2)c1 [Compound I-203] | 68
COc1cccc(-c2ccc3nc(NC(=O)c4cccc(-n5cncn5)c4)cn3n2)c1 [Compound I-204] | 84
COc1cccc(-c2ccc3nc(NC(=O)[C@H]4CCCCN4C(=O)OC(C)(C)C)cn3n2)c1 [Compound I-207] | 64
COc1cccc(-c2ccc3nc(NC(=O)CCCN4CCCC4=O)cn3n2)c1 [Compound I-209] | 81
COc1cccc(-c2ccc3nc(NC(=O)C4CCN4C(C)(C)C)cn3n2)c1 (stereo not drawn) [Compound I-211] | 61
COc1cccc(-c2ccc3nc(NC(=O)CN(C)C(=O)OC(C)(C)C)cn3n2)c1 [Compound I-212] | 60
COCCC(=O)Nc1cn2nc(-c3cccc(OC)c3)ccc2n1 [Compound I-213] | 73
CNC(=O)Nc1cn2nc(Nc3cccc(C(N)=O)c3)ccc2n1 [Compound I-215] | 70
CNC(=O)Nc1cn2nc(Nc3cccc(C(=O)NC)c3)ccc2n1 [Compound I-216] | 55
CNC(=O)Nc1cn2nc(COc3cccc(C(=O)OC)c3)ccc2n1 [Compound I-217] | 62
CNC(=O)Nc1cn2nc(COc3cccnc3)ccc2n1 [Compound I-218] | 63
COc1cccc(-c2ccc3nc(Nc4ccccn4)cn3n2)c1 [Compound I-220] | 59
CNC(=O)Nc1cn2nc(Nc3cccc(CO)c3)ccc2n1 [Compound I-222] | 87
CCOC(=O)CNC(=O)Nc1cn2nc(-c3cncc(OC)c3)ccc2n1 [Compound I-223] | 86
COc1cccc(-c2ccc3nc(NC(=O)Nc4nccs4)cn3n2)c1 [Compound I-232] | 51
COc1cccc(-c2ccc3nc(NC(=O)NC4CCCCNC4=O)cn3n2)c1 (stereo not drawn) [Compound I-233] | 79
COc1cccc(-c2ccc3nc(NC(=O)NCc4ccco4)cn3n2)c1 [Compound I-234] | 71
COc1cccc(-c2ccc3nc(NC(=O)NCCCN4CCCC4=O)cn3n2)c1 [Compound I-235] | 78

SMILES | inhibition at 50 µM [%]
COc1cccc(-c2ccc3nc(NC(=O)NCc4ccccn4)cn3n2)c1 [Compound I-236] | 67
COc1cccc(-c2ccc3nc(NC(=O)NCCNC(C)=O)cn3n2)c1 [Compound I-237] | 74
COc1cccc(-c2ccc3nc(NC(=O)NCc4cccnc4)cn3n2)c1 [Compound I-239] | 74
COc1cccc(-c2ccc3nc(NC(=O)N4CCC[C@H]4CO)cn3n2)c1 [Compound I-240] | 73
COc1cccc(-c2ccc3nc(NC(=O)Nc4ccc5[nH]ccc5c4)cn3n2)c1 [Compound I-241] | 67
COc1cccc(-c2ccc3nc(NC(=O)Nc4ccon4)cn3n2)c1 [Compound I-243] | 78
COCCCNC(=O)Nc1cn2nc(-c3cccc(OC)c3)ccc2n1 [Compound I-244] | 87
COCCNC(=O)Nc1cn2nc(-c3cccc(OC)c3)ccc2n1 [Compound I-245] | 76
COc1cccc(-c2ccc3nc(NC(=O)N4CCC[C@H]4C(=O)OC(C)(C)C)cn3n2)c1 [Compound I-249] | 59
COc1cccc(-c2ccc3nc(NC(=O)NCc4ccoc4)cn3n2)c1 [Compound I-254] | 77
COc1cccc(-c2ccc3nc(NC(=O)NCc4nccs4)cn3n2)c1 [Compound I-255] | 75
CCOC(=O)CCCNC(=O)Nc1cn2nc(-c3cccc(OC)c3)ccc2n1 [Compound I-257] | 83
COc1cccc(-c2ccc3nc(NC(=O)NCC4COCCO4)cn3n2)c1 (stereo not drawn) [Compound I-258] | 76
CCOC(=O)CCNC(=O)Nc1cn2nc(-c3cccc(OC)c3)ccc2n1 [Compound I-259] | 68
COC[C@H]1CCCN1C(=O)Nc1cn2nc(-c3cccc(OC)c3)ccc2n1 [Compound I-261] | 59
COc1cccc(-c2ccc3nc(NC(=O)NCCNC(=O)OC(C)(C)C)cn3n2)c1 [Compound I-263] | 71
COc1cccc(-c2ccc3nc(NC(=O)NCCN)cn3n2)c1 [Compound I-264] | 67
COc1cccc(-c2ccc3nc(NC(=O)NCCC(=O)N4CCOCC4)cn3n2)c1 [Compound I-268] | 62
COc1cccc(-c2ccc3nc(NC(=O)NN4CCc5ccccc54)cn3n2)c1 [Compound I-269] | 64
COc1cccc(-c2ccc3nc(NC(=O)NC4CCN(S(=O)(=O)C(C)C)CC4)cn3n2)c1 [Compound I-271] | 53
COc1cccc(-c2ccc3nc(NC(=O)NCCC(=O)NC(C)(C)C)cn3n2)c1 [Compound I-272] | 61
COc1cccc(-c2ccc3nc(NC(=O)NCCC(=O)OC(C)(C)C)cn3n2)c1 [Compound I-273] | 85
COc1cccc(-c2ccc3nc(NC(=O)NN(C)C)cn3n2)c1 [Compound I-276] | 87
COc1cccc(-c2ccc3nc(NC(=O)NCCCN)cn3n2)c1 [Compound I-278] | 81
COc1cccc(-c2ccc3nc(NC(=O)NCCC(N)=O)cn3n2)c1 [Compound I-279] | 83
